These results are taken from PubChem BioAssay AID328 (DTP/NCI, 2004).

Where “and” joins values, the source holds several entries; their conditions need not be identical. Equal entries are not always repeated. Toxic doses and inconclusive results are not listed.

The assay concerns BDF1 mice, P388 leukemia ip, median survival T/C. Description: NCI In Vivo Anticancer Drug Screen. Data for tumor model P388 Leukemia (intraperitoneal) in B6D2F1 (BDF1) mice. Conditions: endpoint: median survival time, higher = longer survival. The method, boiled down: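 Each value expresses how treatment altered survival: treated-mouse outcome over vehicle-mouse outcome, both groups bearing the transplanted tumour.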

[1] abbreviates: dose: 100.0 mg/kg/injection, schedule: Q01DX009 (ip), vehicle: saline with Tween-80.
Where [2] appears, read: dose: 200.0 mg/kg/injection, schedule: Q01DX009 (ip), vehicle: saline with Tween-80.
Where [3] appears, read: dose: 50.0 mg/kg/injection, schedule: Q01DX009 (ip), vehicle: Klucel (hydroxypropylcellulose) (HPC).
Setting [4] is: dose: 100.0 mg/kg/injection, schedule: Q01DX009 (ip), vehicle: Klucel (hydroxypropylcellulose) (HPC).
Setting [5] is: dose: 100.0 mg/kg/injection, schedule: Q04DX003 (ip), vehicle: saline with Tween-80.
The mark [6] stands for this setting: dose: 200.0 mg/kg/injection, schedule: Q04DX003 (ip), vehicle: saline with Tween-80.
Where [7] appears, read: dose: 50.0 mg/kg/injection, schedule: Q01DX009 (ip), vehicle: saline with Tween-80.

For the molecule `c1cc[c]([Sb]([c]2ccccc2)[c]2ccccc2)cc1`, for the setting “dose: 20.0 mg/kg/injection, schedule: Q04DX003 (ip), vehicle: saline with Tween-80”, the T/C was 120 % of control.

In the case of `CC1(C)N=C(N)N=C(N)N1c1ccc(Cl)c(Cl)c1`, the T/C is, setting by setting: (dose: 7.2 mg/kg/injection, schedule: Q01DX009 (ip), vehicle: Klucel (hydroxypropylcellulose) (HPC)) 122 % of control; (dose: 16.0 mg/kg/injection, schedule: Q01DX009 (ip), vehicle: Klucel (hydroxypropylcellulose) (HPC)) 181 % of control; (dose: 20.0 mg/kg/injection, schedule: Q04DX003 (ip), vehicle: Klucel (hydroxypropylcellulose) (HPC)) 120 % of control; (dose: 22.5 mg/kg/injection, schedule: Q01DX009 (ip), vehicle: Klucel (hydroxypropylcellulose) (HPC)) 172 % of control; (dose: 26.0 mg/kg/injection, schedule: Q04DX003 (ip), vehicle: Klucel (hydroxypropylcellulose) (HPC)) 154 % of control; (dose: 30.0 mg/kg/injection, schedule: Q01DX009 (ip), vehicle: Klucel (hydroxypropylcellulose) (HPC)) 95 % of control. Also, where the note is “dose: 40.0 mg/kg/injection, schedule: Q04DX003 (ip), vehicle: Klucel (hydroxypropylcellulose) (HPC)”, the T/C was 231 % of control and 158 % of control.

As for `NCCCCC1NC(=O)C(CCCCN)NC1=O` (centres undefined), the T/C (dose: 50.0 mg/kg/injection, schedule: Q01DX005 (ip), vehicle: saline) was 105 % of control; the T/C (dose: 100.0 mg/kg/injection, schedule: Q01DX005 (ip), vehicle: saline) was 105 % of control; the T/C (dose: 200.0 mg/kg/injection, schedule: Q01DX005 (ip), vehicle: saline) is 95 % of control.

In the case of `COC(=O)CCCCC(=O)OC`, the T/C was 100 % of control under setting [1]; 100 % of control under setting [2]; 109 % of control (dose: 400.0 mg/kg/injection, schedule: Q01DX009 (ip), vehicle: saline with Tween-80).

For `CC1CCC2(C(=O)O)CCC3(C)C(=CCC4C5(C)CCC(O)C(C)(C)C5CCC43C)C2C1C` (centres undefined), the T/C is, setting by setting: (dose: 100.0 mg/kg/injection, schedule: Q01DX010 (ip), vehicle: acetone) 120 % of control; (dose: 200.0 mg/kg/injection, schedule: Q01DX010 (ip), vehicle: acetone) 115 % of control; (dose: 400.0 mg/kg/injection, schedule: Q01DX010 (ip), vehicle: acetone) 120 % of control.

As to `O=C(NC(=O)C(F)(F)C(F)(F)F)Nc1cccc(F)c1`, the T/C is 116 % of control under setting [3] and 122 % of control under setting [4].

Take `COc1cc(N2CCOCC2)ccc1[N+](=O)[O-]`: the T/C is, setting by setting: (dose: 100.0 mg/kg/injection, schedule: Q01DX009 (ip), vehicle: saline) 91 % of control; (dose: 100.0 mg/kg/injection, schedule: Q04DX003 (ip), vehicle: saline) 109 % of control; (dose: 200.0 mg/kg/injection, schedule: Q01DX009 (ip), vehicle: saline) 100 % of control; (dose: 200.0 mg/kg/injection, schedule: Q04DX003 (ip), vehicle: saline) 104 % of control; (dose: 400.0 mg/kg/injection, schedule: Q04DX003 (ip), vehicle: saline) 95 % of control.

As to `CCOC(=O)C(C)(C)CN(CC(C)(C)C(=O)OCC)c1ccccc1`, the T/C under setting [5] was 115 % of control; the T/C under setting [6] is 115 % of control; the T/C (dose: 400.0 mg/kg/injection, schedule: Q04DX003 (ip), vehicle: saline with Tween-80) was 120 % of control.

`C[N+]1(C)N=C([O-])N(c2ccc([N+](=O)[O-])cc2)C1=O`: the T/C runs as follows: under setting [7], 90 % of control; under setting [1], 99 % of control.

Take `O=C(O)c1cccc(S(=O)(=O)N(CCO)CCO)c1`: the T/C was 100 % of control (dose: 50.0 mg/kg/injection, schedule: Q04DX003 (ip), vehicle: saline with Tween-80); 90 % of control under setting [5]; 95 % of control under setting [6].

In the case of `NC1=C(N2CC2)C(=O)C(N)=C(N2CC2)C1=O`, for the setting “dose: 100.0 micrograms/kg/injection, schedule: Q01DX009 (ip), vehicle: saline”, the T/C is 178 % of control.

Regarding `Cc1ccccc1NS(=O)(=O)c1c([N+](=O)[O-])ncn1C`, the T/C under setting [3] is 110 % of control; the T/C under setting [4] is 116 % of control; the T/C (dose: 200.0 mg/kg/injection, schedule: Q01DX009 (ip), vehicle: Klucel (hydroxypropylcellulose) (HPC)) was 116 % of control; the T/C (dose: 400.0 mg/kg/injection, schedule: Q01DX009 (ip), vehicle: Klucel (hydroxypropylcellulose) (HPC)) is 95 % of control.

As to `Oc1ccc2ccccc2c1Cc1c(O)ccc2ccccc12`, the T/C runs as follows: (dose: 50.0 mg/kg/injection, schedule: Q04DX003 (ip), vehicle: other) 95 % of control; (dose: 100.0 mg/kg/injection, schedule: Q04DX003 (ip), vehicle: other) 95 % of control; (dose: 200.0 mg/kg/injection, schedule: Q04DX003 (ip), vehicle: other) 104 % of control.

On to `CC(C)NC(=O)c1ccccc1Sc1ccccc1`, for which the T/C is, setting by setting: under setting [7], 100 % of control; under setting [1], 106 % of control; under setting [2], 108 % of control.

Take `N[C@@H](Cc1ccc(N(CCCl)CCCl)cc1)C(=O)O`: the T/C by setting is: (dose: 0.5 mg/kg/injection, schedule: Q01DX009 (ip), vehicle: saline) 167 % of control; (dose: 0.5 mg/kg/injection, schedule: Q01DX010 (ip), vehicle: saline) 227 % of control; (dose: 1.0 mg/kg/injection, schedule: Q01DX009 (ip), vehicle: saline) 245 % of control and 188 % of control; (dose: 1.0 mg/kg/injection, schedule: Q01DX010 (ip), vehicle: saline) 277 % of control; (dose: 2.0 mg/kg/injection, schedule: Q01DX009 (ip), vehicle: saline) 237 % of control and 254 % of control; (dose: 2.0 mg/kg/injection, schedule: Q01DX010 (ip), vehicle: saline) 300 % of control. Also, the T/C (dose: 2.5 mg/kg/injection, schedule: Q04DX003 (ip), vehicle: water) was 205 % of control; the T/C (dose: 3.6 mg/kg/injection, schedule: Q01DX001 (ip), vehicle: saline) is 150 % of control and 181 % of control; the T/C (dose: 4.0 mg/kg/injection, schedule: Q01DX009 (ip), vehicle: saline) was 113 % of control; the T/C (dose: 4.0 mg/kg/injection, schedule: Q01DX010 (ip), vehicle: saline) was 113 % of control; the T/C (dose: 4.0 mg/kg/injection, schedule: Q04DX003 (ip), vehicle: Klucel (hydroxypropylcellulose) (HPC)) was 236 % of control; the T/C (dose: 6.0 mg/kg/injection, schedule: Q01DX001 (ip), vehicle: saline) is 167 % of control and 172 % of control. Also, the T/C by setting is: (dose: 10.0 mg/kg/injection, schedule: Q01DX001 (ip), vehicle: Klucel (hydroxypropylcellulose) (HPC)) 227 % of control and 245 % of control; (dose: 12.5 mg/kg/injection, schedule: Q01DX001 (ip), vehicle: Klucel (hydroxypropylcellulose) (HPC)) 240 % of control and 279 % of control; (dose: 15.0 mg/kg/injection, schedule: Q01DX001 (ip), vehicle: Klucel (hydroxypropylcellulose) (HPC)) 295 % of control and 298 % of control; (dose: 17.5 mg/kg/injection, schedule: Q01DX001 (ip), vehicle: Klucel (hydroxypropylcellulose) (HPC)) 286 % of control and 318 % of control; (dose: 20.0 mg/kg/injection, schedule: Q01DX001 (ip), vehicle: Klucel (hydroxypropylcellulose) (HPC)) 254 % of control and 259 % of control; (dose: 40.0 mg/kg/injection, schedule: Q04DX003 (ip), vehicle: water) 91 % of control and 96 % of control.

Regarding `Cn1c([N+](=O)[O-])cnc1CSC(=S)N1CCN(C(=S)SCc2ncc([N+](=O)[O-])n2C)CC1`, the T/C by setting is: (dose: 25.0 mg/kg/injection, schedule: Q01DX009 (ip), vehicle: saline with Tween-80) 106 % of control; under setting [7], 103 % of control; under setting [1], 103 % of control.

In the case of `OCC1(CO)COC(c2ccccc2)OC1`, the T/C runs as follows: (dose: 25.0 mg/kg/injection, schedule: Q04DX003 (ip), vehicle: Klucel (hydroxypropylcellulose) (HPC)) 95 % of control; (dose: 50.0 mg/kg/injection, schedule: Q04DX003 (ip), vehicle: Klucel (hydroxypropylcellulose) (HPC)) 100 % of control; (dose: 100.0 mg/kg/injection, schedule: Q04DX003 (ip), vehicle: Klucel (hydroxypropylcellulose) (HPC)) 100 % of control.

Regarding `COC(=O)/C=C1\Sc2ccc(C(F)(F)F)cc2NC1=O`, the T/C is, setting by setting: under setting [7], 91 % of control; under setting [1], 91 % of control; under setting [2], 91 % of control.

Turning to `C=CC(C)(O)/C=C/C=C(\C)C(CC1OC1(C)C)OC(=O)/C(C)=C\C` (centres undefined), the T/C by setting is: (dose: 0.78 mg/kg/injection, schedule: Q01DX009 (ip), vehicle: saline) 106 % of control; (dose: 1.56 mg/kg/injection, schedule: Q01DX009 (ip), vehicle: saline) 95 % of control; (dose: 3.13 mg/kg/injection, schedule: Q01DX009 (ip), vehicle: saline) 95 % of control; (dose: 6.25 mg/kg/injection, schedule: Q01DX009 (ip), vehicle: saline) 113 % of control.
